Data: PubChem BioAssay (NCI)
Several values for one entry are separate records, joined by “and”; a condition that tells them apart may be missing. Equal entries are not always repeated.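 The compound was tested at five concentrations on cells cultured in 96-well plates, with a 48-hour exposure period. TGI marks complete inhibition of growth.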

Tests used:
Assay in all cases: NCI-60 cell line screen, 48 h
[1] = tested on: DU-145 prostate
[2] = tested on: RXF 393 renal
[3] = tested on: TK-10 renal
[4] = tested on: ACHN renal
[5] = tested on: LOX IMVI melanoma
[6] = tested on: K-562 leukemia
[7] = tested on: A498 renal
[8] = tested on: MDA-MB-231 breast
[9] = tested on: SNB-19 CNS
[10] = tested on: NCI-H460 lung
[11] = tested on: SNB-75 CNS
[12] = tested on: CAKI-1 renal
[13] = tested on: RPMI-8226 leukemia
[14] = tested on: A549 NSCLC
[15] = tested on: NCI-H23 lung
[16] = tested on: HOP-62 NSCLC
[17] = tested on: HOP-92 NSCLC
[18] = tested on: MOLT-4 leukemia

## CN=CN(C)c1c2ccccc2nc2ccccc12
[1]
  TGI: > 100 µM
[2]
  TGI: > 100 µM
[3]
  TGI: > 100 µM
[4]
  TGI: > 100 µM
[5]
  TGI: > 100 µM
[6]
  TGI: > 100 µM
[7]
  TGI: > 100 µM
[8]
  TGI: > 100 µM
[9]
  TGI: > 100 µM
[10]
  TGI: > 100 µM
[11]
  TGI: > 100 µM
[12]
  TGI: > 100 µM
[13]
  TGI: > 100 µM
[14]
  TGI: > 100 µM
[15]
  TGI: > 100 µM
[16]
  TGI: > 100 µM
[17]
  TGI: > 100 µM
[18]
  TGI: > 100 µM

## O=c1[nH]/c(=C/c2ccc(OCc3ccccc3)cn2)c(=O)[nH]/c1=C/c1ccc(Cl)cc1
[1]
  TGI: > 100 µM
[2]
  TGI: > 28.3 µM
[3]
  TGI: > 82.9 µM
[4]
  TGI: > 100 µM
[5]
  TGI: > 100 µM
[6]
  TGI: > 100 µM
[7]
  TGI: 7.53 µM
[8]
  TGI: > 100 µM
[9]
  TGI: > 100 µM
[10]
  TGI: > 100 µM
[11]
  TGI: 25.2 µM
[12]
  TGI: > 56.6 µM
[13]
  TGI: > 100 µM
[14]
  TGI: > 100 µM
[15]
  TGI: > 100 µM
[16]
  TGI: 47.8 µM
[17]
  TGI: > 100 µM
[18]
  TGI: > 100 µM

## CCOP(=O)(OCC)/C(C#N)=C/c1ccc(-c2ccc(F)cc2F)o1
[1]
  TGI: 42.5 µM
[2]
  TGI: > 100 µM
[3]
  TGI: 25.5 µM
[4]
  TGI: 26.6 µM
[5]
  TGI: 32.9 µM
[6]
  TGI: 38.1 µM
[7]
  TGI: 28.8 µM
[8]
  TGI: 36.6 µM
[9]
  TGI: 33.3 µM
[10]
  TGI: 44.2 µM
[11]
  TGI: 61.3 µM
[12]
  TGI: 28.6 µM
[13]
  TGI: 51.9 µM
[14]
  TGI: 30.2 µM
[15]
  TGI: 33.6 µM
[16]
  TGI: 33.8 µM
[17]
  TGI: 35.7 µM
[18]
  TGI: 28.4 µM

## Cc1cc(NC(=O)NC(=O)c2ccccc2N)ccc1Oc1ncc(Br)cn1
[1]
  TGI: > 4.64 µM
[2]
  TGI: 1.62 µM
[3]
  TGI: 35.1 µM
[4]
  TGI: > 100 µM
[5]
  TGI: > 67.1 µM
[6]
  TGI: > 100 µM
[7]
  TGI: 0.751 µM
[8]
  TGI: 7.93 µM
[9]
  TGI: 38.5 µM
[10]
  TGI: 14.3 µM
[11]
  TGI: 37.7 µM
[12]
  TGI: 63.3 µM
[13]
  TGI: > 100 µM
[14]
  TGI: 20.7 µM
[15]
  TGI: 0.575 µM
[16]
  TGI: 31.2 µM
[17]
  TGI: 53.8 µM
[18]
  TGI: > 30.3 µM

## CC(=O)OC1COC(n2nc(/C=C/c3ccc(Cl)cc3)c(=O)n(/N=C/c3ccccc3)c2=S)C(OC(C)=O)C1OC(C)=O (stereo not drawn)
[1]
  TGI: > 100 µM
[2]
  TGI: > 100 µM
[3]
  TGI: > 100 µM
[4]
  TGI: > 100 µM
[5]
  TGI: > 100 µM
[6]
  TGI: > 100 µM
[7]
  TGI: > 100 µM
[8]
  TGI: > 100 µM
[9]
  TGI: > 100 µM
[10]
  TGI: > 100 µM
[11]
  TGI: > 100 µM
[12]
  TGI: > 100 µM
[13]
  TGI: > 100 µM
[14]
  TGI: > 100 µM
[15]
  TGI: > 100 µM
[16]
  TGI: > 100 µM
[17]
  TGI: > 100 µM
[18]
  TGI: > 100 µM

## OCC1OC(NCCNCCNC2OC(CO)C(O)C(O)C2O)C(O)C(O)C1O (stereo not drawn)
[1]
  TGI: > 100 µM
[2]
  TGI: > 100 µM
[3]
  TGI: > 100 µM
[4]
  TGI: > 100 µM
[5]
  TGI: > 100 µM
[6]
  TGI: > 100 µM
[7]
  TGI: > 100 µM
[8]
  TGI: > 100 µM
[9]
  TGI: > 100 µM
[10]
  TGI: > 100 µM
[11]
  TGI: > 100 µM
[12]
  TGI: 10.3 µM and > 100 µM
[13]
  TGI: > 100 µM
[14]
  TGI: > 100 µM
[15]
  TGI: > 100 µM
[16]
  TGI: > 100 µM
[17]
  TGI: > 100 µM
[18]
  TGI: > 100 µM

## COc1ccc(-c2cc(-c3ccc(Nc4ccnc5cc(Cl)ccc45)cc3)nc(N)c2C#N)cc1
[1]
  TGI: > 100 µM
[2]
  TGI: > 100 µM
[3]
  TGI: > 100 µM
[4]
  TGI: > 100 µM
[5]
  TGI: > 100 µM
[6]
  TGI: > 100 µM
[7]
  TGI: > 100 µM
[8]
  TGI: > 100 µM
[9]
  TGI: > 100 µM
[10]
  TGI: > 100 µM
[11]
  TGI: > 100 µM
[12]
  TGI: > 100 µM
[13]
  TGI: > 100 µM
[14]
  TGI: > 100 µM
[15]
  TGI: > 100 µM
[16]
  TGI: > 100 µM
[17]
  TGI: > 100 µM
[18]
  TGI: > 100 µM

## COc1cc(/C=C/C(=O)OC2C(O)C3CC(OC(=O)c4cc(OC)c(OC)c(OC)c4)CC2N3C)cc(OC)c1OC (stereo not drawn)
[1]
  TGI: > 50 µM
[2]
  TGI: > 50 µM
[3]
  TGI: > 50 µM
[4]
  TGI: > 50 µM
[5]
  TGI: > 50 µM
[6]
  TGI: > 50 µM
[7]
  TGI: 17.7 µM
[8]
  TGI: > 50 µM
[9]
  TGI: 39.9 µM
[10]
  TGI: > 50 µM
[11]
  TGI: > 50 µM
[12]
  TGI: > 50 µM
[13]
  TGI: > 50 µM
[14]
  TGI: > 50 µM
[15]
  TGI: > 50 µM
[16]
  TGI: > 50 µM
[17]
  TGI: > 50 µM
[18]
  TGI: > 50 µM

## COC(=O)C12OC(C)(C(CC(=O)OC(C)(C)C)C1=O)C1C(=O)N(c3ccccc3)C(=O)C12 (stereo not drawn)
[1]
  TGI: > 100 µM
[2]
  TGI: > 100 µM
[3]
  TGI: > 100 µM
[4]
  TGI: > 100 µM
[5]
  TGI: > 100 µM
[6]
  TGI: > 100 µM
[7]
  TGI: > 100 µM
[8]
  TGI: > 100 µM
[9]
  TGI: > 100 µM
[10]
  TGI: > 100 µM
[11]
  TGI: > 100 µM
[12]
  TGI: > 100 µM
[13]
  TGI: > 100 µM
[14]
  TGI: > 100 µM
[15]
  TGI: > 100 µM
[16]
  TGI: > 100 µM
[17]
  TGI: > 100 µM
[18]
  TGI: > 100 µM

## COc1cc2c(cc1OC)CC(=O)c1cc(OC)c(OC)cc1/C=C\2
[1]
  TGI: > 12.5 µM
[2]
  TGI: > 12.5 µM
[3]
  TGI: > 12.5 µM
[4]
  TGI: > 12.5 µM
[5]
  TGI: > 12.5 µM
[6]
  TGI: > 12.5 µM
[7]
  TGI: > 12.5 µM
[8]
  TGI: > 12.5 µM
[9]
  TGI: > 12.5 µM
[10]
  TGI: > 12.5 µM
[11]
  TGI: > 12.5 µM
[12]
  TGI: > 12.5 µM
[13]
  TGI: > 12.5 µM
[14]
  TGI: > 12.5 µM
[15]
  TGI: > 12.5 µM
[16]
  TGI: > 12.5 µM
[17]
  TGI: > 12.5 µM
[18]
  TGI: > 12.5 µM

## COc1cc(Cn2c(=S)ss/c2=N\C(=S)N(C)C)cc(OC)c1OC
[1]
  TGI: > 39.5 µM
[2]
  TGI: 29.5 µM
[3]
  TGI: > 100 µM
[4]
  TGI: > 88.8 µM
[5]
  TGI: > 100 µM
[6]
  TGI: > 100 µM
[7]
  TGI: > 100 µM
[8]
  TGI: > 47.4 µM
[9]
  TGI: > 100 µM
[10]
  TGI: 52.3 µM
[11]
  TGI: 53.9 µM
[12]
  TGI: > 100 µM
[13]
  TGI: > 85.8 µM
[14]
  TGI: > 100 µM
[15]
  TGI: 50.6 µM
[16]
  TGI: > 84.1 µM
[17]
  TGI: 56.3 µM
[18]
  TGI: > 100 µM
